Among the data in PubChem BioAssay AID1259407 (Chemical Carcinogenesis Research Information System (CCRIS), 2018) are mutagenic call values, retold here.

The subject of the data set is CCRIS mutagenicity, Ames/micronucleus/aberration tests. Nature of the data set: CCRIS mutagenicity studies.
Setting [1] is: Test System: AMES SALMONELLA TYPHIMURIUM, Strain/Indicator: TA98, Metabolic Activation: NONE, Method: STANDARD PLATE.
The mark [2] stands for this setting: Test System: AMES SALMONELLA TYPHIMURIUM, Strain/Indicator: TA100, Metabolic Activation: NONE, Method: STANDARD PLATE.
Where [3] appears, read: Test System: AMES SALMONELLA TYPHIMURIUM, Strain/Indicator: TA98, Metabolic Activation: NONE, Method: PREINCUBATION
The mark [4] stands for this setting: Test System: AMES SALMONELLA TYPHIMURIUM, Strain/Indicator: TA97, Metabolic Activation: RAT, LIVER, S-9, AROCLOR 1254, Method: STANDARD PLATE.
Where [5] appears, read: Test System: AMES SALMONELLA TYPHIMURIUM, Strain/Indicator: TA98, Metabolic Activation: RAT, LIVER, S-9, AROCLOR 1254, Method: STANDARD PLATE.
The mark [6] stands for this setting: Test System: AMES SALMONELLA TYPHIMURIUM, Strain/Indicator: TA100, Metabolic Activation: RAT, LIVER, S-9, AROCLOR 1254, Method: STANDARD PLATE.

The source made the active and inactive calls. The rule behind the calls is not given here.

For the compound `C1=Cc2c3ccc4cccc5ccc(c6cccc1c26)c3c45`, the mutagenic call (Test System: AMES SALMONELLA TYPHIMURIUM, Strain/Indicator: TA98, Metabolic Activation: RAT, LIVER, S-9, AROCLOR 1254 (0.55 MG), Method: STANDARD PLATE) was “active; positive”; the mutagenic call (Test System: AMES SALMONELLA TYPHIMURIUM, Strain/Indicator: TA100, Metabolic Activation: RAT, LIVER, S-9, AROCLOR 1254 (0.55 MG), Method: STANDARD PLATE) is “active; positive”; the mutagenic call (Test System: AMES SALMONELLA TYPHIMURIUM, Strain/Indicator: TA104, Metabolic Activation: RAT, LIVER, S-9, AROCLOR 1254 (0.55 MG), Method: STANDARD PLATE) was “active; positive”; the mutagenic call (Test System: AMES SALMONELLA TYPHIMURIUM, Strain/Indicator: TA1535, Metabolic Activation: RAT, LIVER, S-9, AROCLOR 1254 (0.55 MG), Method: STANDARD PLATE) was “inactive; negative”; the mutagenic call (Test System: AMES SALMONELLA TYPHIMURIUM, Strain/Indicator: TA1537, Metabolic Activation: RAT, LIVER, S-9, AROCLOR 1254 (0.55 MG), Method: STANDARD PLATE) is “active; positive”; the mutagenic call (Test System: AMES SALMONELLA TYPHIMURIUM, Strain/Indicator: TA1538, Metabolic Activation: RAT, LIVER, S-9, AROCLOR 1254 (0.55 MG), Method: STANDARD PLATE) is “active; positive”.

Take `O=C(O)c1oc([N+](=O)[O-])c(-c2ccccc2)c1-c1ccccc1`: the mutagenic call by setting is: under setting [1], “inactive; negative”; under setting [2], “active; positive”.

With `Nc1cccc2cccc(N)c12`, the mutagenic call is “inactive; negative” (Test System: AMES SALMONELLA TYPHIMURIUM, Strain/Indicator: TA98, Metabolic Activation: RAT LIVER, CYTOSOL, AROCLOR 1254, Method: STANDARD PLATE) and “active; positive” (Test System: AMES SALMONELLA TYPHIMURIUM, Strain/Indicator: TA98, Metabolic Activation: RAT LIVER, MICROSOMES, AROCLOR 1254, Method: STANDARD PLATE).

For `[S]=[Co]`, the mutagenic call by setting is: (Test System: CHINESE HAMSTER G10, Strain/Indicator: G10 (GPT)/6-THIOGUANINE, Metabolic Activation: NONE) “inactive; negative”; (Test System: CHINESE HAMSTER G12, Strain/Indicator: G12 (GPT)/6-THIOGUANINE, Metabolic Activation: NONE) “active; positive”; (Test System: CHINESE HAMSTER V-79, Strain/Indicator: V-79 (HPRT)/6-THIOGUANINE, Metabolic Activation: NONE) “inactive; negative”.

`CCC(=O)N(O)c1ccc(/C=C/c2ccccc2)cc1`: the mutagenic call reads like this: under setting [3], “inactive; negative”; (Test System: AMES SALMONELLA TYPHIMURIUM, Strain/Indicator: TA98, Metabolic Activation: RAT, LIVER, CYTOSOL, Method: PREINCUBATION) “active; positive”; (Test System: AMES SALMONELLA TYPHIMURIUM, Strain/Indicator: TA98, Metabolic Activation: RAT, LIVER, MICROSOMES, Method: PREINCUBATION) “active; positive”.

In the case of `Oc1ccc2ccc3c4ccccc4cc4ccc1c2c43`, the mutagenic call reads like this: under setting [4], “active; positive”; under setting [1], “active; positive”; under setting [5], “active; positive”; under setting [2], “active; positive”; under setting [6], “active; positive”; (Test System: AMES SALMONELLA TYPHIMURIUM, Strain/Indicator: TA1537, Metabolic Activation: RAT, LIVER, S-9, AROCLOR 1254, Method: STANDARD PLATE) “active; positive”. Besides, for the setting “Test System: CHINESE HAMSTER V-79, Strain/Indicator: V-79/8-AZAGUANINE, Metabolic Activation: NONE, Method: STANDARD PLATE”, the mutagenic call was “active; positive”.

As to `BrCc1ccc(CBr)cc1`, the mutagenic call is “inactive; negative” under setting [1] and “inactive; negative” under setting [2].

Take `COc1ccc(CN2C3c4ccccc4-c4ccccc4C32)cc1` (configuration not stated): the mutagenic call under setting [2] is “active; positive”.

In the case of `Nc1ncc2[nH]cnc2n1`, the mutagenic call was “inactive; negative” under setting [1]; “inactive; negative” under setting [2]; “active; positive” (Test System: CHINESE HAMSTER V-79, Strain/Indicator: V-79 (HGPRT)/6-THIOGUANINE, Metabolic Activation: NONE, Method: STANDARD PLATE); “active; positive” (Test System: E. COLI, Strain/Indicator: WP2, Metabolic Activation: NONE, Method: STANDARD PLATE); “active; positive” (Test System: E. COLI, Strain/Indicator: WP2 UVRA, Metabolic Activation: NONE, Method: STANDARD PLATE); “active; positive” (Test System: MOUSE LYMPHOMA, Strain/Indicator: L5178Y (TK+/TK-), Metabolic Activation: NONE, Method: SUSPENSION/PLATE).

`CCCSC(=O)Cl`: the mutagenic call (Test System: AMES SALMONELLA TYPHIMURIUM, Strain/Indicator: TA97, Metabolic Activation: HAMSTER, LIVER, S-9, AROCLOR 1254 (30%), Method: PREINCUBATION) is “inactive; negative”; the mutagenic call (Test System: AMES SALMONELLA TYPHIMURIUM, Strain/Indicator: TA97, Metabolic Activation: NONE, Method: PREINCUBATION) is “inactive; negative”; the mutagenic call (Test System: AMES SALMONELLA TYPHIMURIUM, Strain/Indicator: TA97, Metabolic Activation: RAT, LIVER, S-9, AROCLOR 1254 (30%), Method: PREINCUBATION) was “inactive; negative”; the mutagenic call (Test System: AMES SALMONELLA TYPHIMURIUM, Strain/Indicator: TA98, Metabolic Activation: HAMSTER, LIVER, S-9, AROCLOR 1254 (30%), Method: PREINCUBATION) was “inactive; negative”; the mutagenic call under setting [3] is “inactive; negative”; the mutagenic call (Test System: AMES SALMONELLA TYPHIMURIUM, Strain/Indicator: TA98, Metabolic Activation: RAT, LIVER, S-9, AROCLOR 1254 (30%), Method: PREINCUBATION) was “inactive; negative”. Besides, the mutagenic call by setting is: (Test System: AMES SALMONELLA TYPHIMURIUM, Strain/Indicator: TA100, Metabolic Activation: HAMSTER, LIVER, S-9, AROCLOR 1254 (30%), Method: PREINCUBATION) “inactive; negative”; (Test System: AMES SALMONELLA TYPHIMURIUM, Strain/Indicator: TA100, Metabolic Activation: NONE, Method: PREINCUBATION) “inactive; negative”; (Test System: AMES SALMONELLA TYPHIMURIUM, Strain/Indicator: TA100, Metabolic Activation: RAT, LIVER, S-9, AROCLOR 1254 (30%), Method: PREINCUBATION) “inactive; negative”; (Test System: AMES SALMONELLA TYPHIMURIUM, Strain/Indicator: TA1535, Metabolic Activation: HAMSTER, LIVER, S-9, AROCLOR 1254 (5%), Method: PREINCUBATION) “inactive; negative”; (Test System: AMES SALMONELLA TYPHIMURIUM, Strain/Indicator: TA1535, Metabolic Activation: HAMSTER, LIVER, S-9, AROCLOR 1254 (10%), Method: PREINCUBATION) “active; positive”; (Test System: AMES SALMONELLA TYPHIMURIUM, Strain/Indicator: TA1535, Metabolic Activation: HAMSTER, LIVER, S-9, AROCLOR 1254 (30%), Method: PREINCUBATION) “active; positive”. Moreover, the mutagenic call (Test System: AMES SALMONELLA TYPHIMURIUM, Strain/Indicator: TA1535, Metabolic Activation: NONE, Method: PREINCUBATION) was “inactive; negative”; the mutagenic call (Test System: AMES SALMONELLA TYPHIMURIUM, Strain/Indicator: TA1535, Metabolic Activation: RAT, LIVER, S-9, AROCLOR 1254 (30%), Method: PREINCUBATION) was “inactive; negative”; the mutagenic call (Test System: AMES SALMONELLA TYPHIMURIUM, Strain/Indicator: TA1537, Metabolic Activation: HAMSTER, LIVER, S-9, AROCLOR 1254 (30%), Method: PREINCUBATION) was “inactive; negative”; the mutagenic call (Test System: AMES SALMONELLA TYPHIMURIUM, Strain/Indicator: TA1537, Metabolic Activation: NONE, Method: PREINCUBATION) was “inactive; negative”; the mutagenic call (Test System: AMES SALMONELLA TYPHIMURIUM, Strain/Indicator: TA1537, Metabolic Activation: RAT, LIVER, S-9, AROCLOR 1254 (30%), Method: PREINCUBATION) was “inactive; negative”.

Turning to `CN=C1C=CC(=C(c2ccc(NC)cc2)c2ccc(N(C)C)cc2)C=C1`, the mutagenic call by setting is: (Test System: AMES SALMONELLA TYPHIMURIUM, Strain/Indicator: TA97, Metabolic Activation: NONE, Method: STANDARD PLATE) “inactive; negative”; under setting [4], “inactive; negative”; under setting [1], “inactive; negative”; under setting [5], “inactive; negative”; under setting [2], “inactive; negative”; under setting [6], “inactive; negative”. Further, the mutagenic call (Test System: AMES SALMONELLA TYPHIMURIUM, Strain/Indicator: TA104, Metabolic Activation: NONE, Method: STANDARD PLATE) was “inactive; negative” and the mutagenic call (Test System: AMES SALMONELLA TYPHIMURIUM, Strain/Indicator: TA104, Metabolic Activation: RAT, LIVER, S-9, AROCLOR 1254, Method: STANDARD PLATE) is “inactive; negative”.
